In the METLIN SMRT retention time set (Domingo-Almenara et al. 2019):

assay: gradient 5% acetonitrile 3 min, to 50% in 2 min, to 85% in 15 min, held 3 min, 100 µL/min; conditions: column: Zorbax Extend-C18 2.1 x 50 mm; eluents: water / acetonitrile, 0.1% formic acid
Method in brief: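 Each retention time is based on an adduct peak selected computationally and verified by manual inspection. Measurements used HPLC–quadrupole time-of-flight mass spectrometry in positive and negative ionization mode on mixtures of ~100 pure standards. Chromatography ran on a Zorbax Extend-C18 column (2.1 × 50 mm, 1.8 μm) at 100 μL/min with water and acetonitrile, each containing 0.1% formic acid, and dead and dwell volumes of 40 μL and 900 μL.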

SMILES | RP-LC retention time
COc1ccc(N2CCN(S(=O)(=O)c3cc(-c4nc(C(C)C)cs4)sc3C)CC2)cc1 | 1340 s
Cc1ccc(NC(=O)C2CCN(S(=O)(=O)c3cn(C(C)C)cn3)CC2)cc1N(C)C | 597 s
COc1ccc(Cl)cc1NS(=O)(=O)c1ccc(-c2nnc(C3CCC3)o2)o1 | 958 s
O=C1CCC2(CNC(=O)c3cnccn3)CCCC=C2N1 (stereo unspecified) | 623 s
O=C(NCc1cccs1)c1ccc(-c2nccnc2N2CCCCC2)cc1 | 968 s
c1ccc(-c2nnc(Cc3ccc4c(c3)OCO4)o2)cc1 | 894 s
CC(=O)Nc1nsc(N2CCC(C(=O)NCc3ccccc3F)CC2)n1 | 659 s
COc1ccccc1N1CCN([C@H]2CS(=O)(=O)C[C@@H]2S(=O)(=O)c2ccc(F)c(C)c2)CC1 | 864 s
C=CCN1CCN(C(=O)C2=NN(c3ccc(C)cc3)c3ncccc3S2(=O)=O)CC1 | 637 s
COc1ccc(Nc2nc(N3CCN(c4ccccc4OC)CC3)nc3c2C(=O)CCC3)cc1 | 1170 s
Cc1nn(-c2ccccc2)c(C)c1S(=O)(=O)N1CCC(C(=O)N2CCc3ccccc32)CC1 | 1020 s
COc1ccc(S(=O)(=O)N2CCC(C(=O)Nc3nccs3)CC2)cc1 | 720 s
O=C(NC1CCCC1)c1cccn1Cc1noc(-c2ccc(Cl)cc2)n1 | 1100 s
CCCn1ccc2sc(C)c(C(=O)NCC(C)C)c2c1=O | 800 s
O=C(NC1CC1)c1cc2cc(Br)ccc2[nH]1 | 817 s
COc1cccc2cc(C(=O)NC3CNC(=O)C3)oc12 (stereo unspecified) | 586 s
Cn1cccc1-c1cc2n(n1)CCC(=O)N2CCCC(=O)NCCCN1CCCCCC1 | 607 s
CCOC(=O)c1noc2ncnc(N3CCN(c4ccc(F)cc4)CC3)c12 | 1010 s
CC(C)n1cnc(S(=O)(=O)N2CCC(C(=O)N3CCN(c4ccccc4)CC3)CC2)c1 | 754 s
Cc1cnc(C(=O)N2CCCn3ccnc3C2C2CCCC2)cn1 (stereo unspecified) | 582 s
Cc1ccc(NC(=O)N2CCC3(C2)c2nc[nH]c2CCN3C)c(C)c1 (stereo unspecified) | 568 s
COc1ccc(OC)c(S(=O)(=O)N2CCCC(C(=O)NCC(C)C)C2)c1 (stereo unspecified) | 796 s
O=C1c2ccccc2-c2onc3c(N4CCN(c5ccccn5)CC4)cc(N4CCCCC4)c1c23 | 600 s
CN(CC1CCOC1)C(=O)NCc1cccc(F)c1 (stereo unspecified) | 675 s

Other lines, results leading:

RP-LC retention time | SMILES
610 s | COc1ccc(NC(=O)c2nnc(COCC(=O)N3CCN(c4ccccn4)CC3)s2)cc1
1000 s | COC(=O)c1ccc(NC(=O)C2CCCN(S(=O)(=O)c3ccc(OC)c(C)c3)C2)cc1 (stereo unspecified)
698 s | Cc1ccn2cc(-c3ccc(NC(=O)c4ccc(Br)cc4)cc3)nc2n1
800 s | CCC(C)Nc1nc(-c2ccc(OC)cc2)nc2ccccc12 (stereo unspecified)
677 s | CC(=O)Nc1ccc(NC(=O)c2ccc3nc(-c4ccc(Cl)cc4)cn3c2)cc1
818 s | CCc1ccc(C(=O)Nc2ccc3c(c2)Sc2ncccc2C(=O)N3C)cc1
630 s | CCC(=O)Nc1ccc(CCc2nc3ccc(C(=O)NC(C)Cc4ccco4)cc3[nH]2)cc1 (stereo unspecified)
969 s | Cc1cc(=O)n(CC(=O)Nc2cccc(C(F)(F)F)c2)c(N2CCN(c3ccccc3)CC2)n1
1020 s | CC(C)c1noc(-c2cc(=O)n(CC(=O)Nc3cccc(F)c3)c3ccccc23)n1
975 s | COc1ccc(-c2ncc3c(n2)CCN(C(=O)c2cccc(Cl)c2)C3)cc1
1130 s | COC(=O)c1ccccc1Nc1c(-c2ccc(Br)cc2)nc2cnccn12
1050 s | Fc1ccc(-n2cc(-c3noc(-c4cccc(F)c4)n3)nn2)cc1
